Laboratory results published in patent US6737383B1, “Herbicidal oxadiazolidines” (priority 1999, dated 2004).

Experiments:
rice = test: Test B flood test rice; type: in vivo, Oryza sativa
Outline: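 Plants were grown to the 2-leaf stage before treatment with test chemical, then held in a greenhouse for twelve to sixteen days. Injury was visually rated against untreated controls on a 0–10 scale, where 0 is no effect and 10 is complete control.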

winter wheat [1] = test: Test E winter wheat; type: in vivo, Triticum aestivum; conditions: Preemergence; for Wheat (winter) plant response rating (0 to 100 scale): Rate 250 g/ha
winter wheat [2] = test: Test E winter wheat; type: in vivo, Triticum aestivum; conditions: Postemergence; for Wheat (winter) plant response rating: Rate 250 g/ha
Outline: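 For postemergence, plants at the 1- to 4-leaf stage, in a 60:40 mix of sandy loam and potting mix, treated with compound formulated in a surfactant-containing non-phytotoxic solvent. Visual assessment versus untreated controls followed roughly 21–28 days in the greenhouse.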

corn = test: Test B pre/postemergence corn; type: in vivo, Zea mays
Outline: (§1)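 Herbicidal effect was estimated by eye on a ten-point control scale after plants spent twelve to sixteen days in a greenhouse following soil or foliar treatment. Foliar sprays targeted plants at one to four leaves; all doses were formulated in a non-phytotoxic solvent with surfactant.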

blackgrass = test: Test E blackgrass; type: in vivo, Alopecurus myosuroides; conditions: Preemergence; for Blackgrass plant response rating (0 to 100 scale): Rate 250 g/ha
Italian ryegrass = test: Test E Italian ryegrass; type: in vivo, Lolium multiflorum; conditions: Preemergence; for I. Ryegrass plant response rating (0 to 100 scale): Rate 250 g/ha
wild oat = test: Test E wild oat; type: in vivo, Avena fatua; conditions: Preemergence; for Wild oat plant response rating (0 to 100 scale): Rate 250 g/ha
crabgrass = test: Test B pre/postemergence crabgrass; type: in vivo, Digitaria sanguinalis
Outline: as §1

velvetleaf = test: Test B pre/postemergence velvetleaf; type: in vivo, Abutilon theophrasti
Outline: as §1

green foxtail = test: Test E green foxtail; type: in vivo, Setaria viridis; conditions: Preemergence; for Green foxtail plant response rating (0 to 100 scale): Rate 250 g/ha
winter barley = test: Test E winter barley; type: in vivo, Hordeum vulgare; conditions: Preemergence; for Barley (winter) plant response rating (0 to 100 scale): Rate 250 g/ha
[3] = Rate 62 g/ha, headed Pre-emergence (flood test species), scale 0 to 10 (0 no effect, 10 complete control)
[4] = Rate 125 g/ha, Pre-emergence, flood test species, scale 0 to 10 where 0 is no effect and 10 is complete control
[5] = Rate 250 g/ha, Pre-emergence, flood-test species, scale 0 to 10, 0 is no effect, 10 is complete control
[6] = Rate 500 g/ha, Pre-emergence, flood test species, scale 0 to 10 (0 no effect, 10 complete control)
[7] = Rate 500 g/ha, 0 to 100 scale where 0 is no effect and 100 is complete control
[8] = Rate 1000 g/ha, 0 to 100 scale, 0 no effect, 100 complete control
[9] = Rate 500 g/ha, 0 to 100 scale, 0 is no effect, 100 is complete control
[10] = Preemergence, Rate 62 g/ha, scale of 0 to 10 where 0 is no effect and 10 is complete control
[11] = Preemergence, Rate 250 g/ha, scale of 0 to 10 where 0 is no effect and 10 is complete control
[12] = Preemergence, Rate 500 g/ha, scale of 0 to 10 where 0 is no effect and 10 is complete control
[13] = Rate 62 g/ha, Postemergence, scale of 0 to 10 where 0 is no effect and 10 is complete control
[14] = Rate 125 g/ha, Postemergence, scale 0 to 10
[15] = Rate 125 g/ha, Preemergence, scale of 0 to 10 where 0 is no effect and 10 is complete control
[16] = Rate 500 g/ha, Postemergence, scale 0 to 10
[17] = Rate 31 g/ha, 0 to 100 scale, 0 no effect, 100 complete control
[18] = Rate 62 g/ha, 0 to 100 scale, 0 no effect, 100 complete control
[19] = Rate 125 g/ha, 0 to 100 scale (0 no effect, 100 complete control)
[20] = 0 to 100 scale where 0 is no effect and 100 is complete control
[21] = Preemergence, Rate 31 g/ha, visual rating, scale 0 to 10 (0 no effect, 10 complete control)
[22] = Rate 31 g/ha, Postemergence, scale 0 to 10
[23] = Rate 500 g/ha, Postemergence, scale 0 to 10, 0 no effect, 10 complete control

SMILES: C#CCn1c(=O)on(C(=O)N(c2ccc(F)cc2)C(C)C)c1=O [Compound 212]
- Rice plant response rating (rice; [3]): 0
- Rice plant response rating (rice; [4]): 0
- Rice plant response rating (rice; [5]): 0
- Rice plant response rating (rice; [6]): 0
- Wheat (winter) plant response rating (0 to 100 scale) (winter wheat [1]): 10
- Plant response rating, Wheat (winter) (winter wheat [1]; [7]): 30
- Plant response rating, Wheat (winter) (winter wheat [1]; [8]): 60
- Plant response rating, Wheat (winter) (winter wheat [2]; Rate 1000 g/ha, 0 to 100 scale, 0 is no effect and 100 is complete control): 75
- Plant response rating, Wheat (winter) (winter wheat [2]; [9]): 70
- Corn plant response rating (corn; [10]): 0
- Corn plant response rating (corn; [11]): 0
- Plant response rating, Corn (corn; [12]): 0
- Corn plant response rating (corn; [13]): 0
- Corn plant response rating (corn; [14]): 0
- Corn plant response rating (corn; [15]): 0
- Plant response rating (0 to 10; 0 is no effect, 10 is complete control), Corn (corn; Rate 250 g/ha, Postemergence): 0
- Corn plant response rating (corn; [16]): 0
- Blackgrass plant response rating (0 to 100 scale) (blackgrass): 20
- Plant response rating, Blackgrass (blackgrass; [7]): 50
- Plant response rating, Blackgrass (blackgrass; [8]): 65
- I. Ryegrass plant response rating (0 to 100 scale) (Italian ryegrass): 60
- Plant response rating, I. Ryegrass (Italian ryegrass; [7]): 70
- Plant response rating, I. Ryegrass (Italian ryegrass; [8]): 70
- Wild oat plant response rating (0 to 100 scale) (wild oat): 60
- Plant response rating, Wild oat (wild oat; [7]): 70
- Plant response rating, Wild oat (wild oat; [8]): 70
- Crabgrass plant response rating (crabgrass; [10]): 0
- Crabgrass plant response rating (crabgrass; [11]): 5
- Plant response rating, Crabgrass (crabgrass; [12]): 5
- Crabgrass plant response rating (crabgrass; [13]): 6
- Crabgrass plant response rating (crabgrass; [14]): 6
- Crabgrass plant response rating (crabgrass; [15]): 4
- Plant response rating (0 to 10; 0 is no effect, 10 is complete control), Crabgrass (crabgrass; Rate 250 g/ha, Postemergence): 8
- Crabgrass plant response rating (crabgrass; [16]): 9
- Velvetleaf plant response rating (velvetleaf; [10]): 2
- Velvetleaf plant response rating (velvetleaf; [11]): 5
- Plant response rating, Velvetleaf (velvetleaf; [12]): 5
- Velvetleaf plant response rating (velvetleaf; [13]): 3
- Velvetleaf plant response rating (velvetleaf; [14]): 4
- Plant response rating (0 to 10; 0 is no effect, 10 is complete control), Velvetleaf (velvetleaf; Rate 250 g/ha, Postemergence): 5
- Green foxtail plant response rating (0 to 100 scale) (green foxtail): 55
- Plant response rating, Green foxtail (green foxtail; [7]): 65
- Plant response rating, Green foxtail (green foxtail; [8]): 100
- Barley (winter) plant response rating (0 to 100 scale) (winter barley): 20
- Plant response rating, Barley (winter) (winter barley; [7]): 40
- Plant response rating, Barley (winter) (winter barley; [8]): 50

SMILES: CC(C)N(C(=O)n1oc(=O)n(N(C)C)c1=O)c1ccccc1 [Compound 225]
- Rice plant response rating (rice; [3]): 0
- Rice plant response rating (rice; [4]): 0
- Rice plant response rating (rice; [5]): 0
- Rice plant response rating (rice; [6]): 0
- Plant response rating, Wheat (winter) (winter wheat [1]; [17]): 10
- Plant response rating, Wheat (winter) (winter wheat [1]; [18]): 30
- Plant response rating, Wheat (winter) (winter wheat [1]; [19]): 65
- Wheat (winter) plant response rating (0 to 100 scale) (winter wheat [1]): 70
- Plant response rating, Wheat (winter) (winter wheat [2]; [17]): 50
- Plant response rating, Wheat (winter) (winter wheat [2]; Rate 62 g/ha, 0 to 100 scale): 60
- Plant response rating, Wheat (winter) (winter wheat [2]; Rate 125 g/ha, 0 to 100 scale, 0 is no effect, 100 is complete control): 75
- Wheat (winter) plant response rating (winter wheat [2]; [20]): 70
- Corn plant response rating (corn; [21]): 0
- Corn plant response rating (corn; [10]): 0
- Corn plant response rating (corn; [11]): 4
- Plant response rating, Corn (corn; [12]): 6
- Corn plant response rating (corn; [22]): 0
- Corn plant response rating (corn; [13]): 0
- Corn plant response rating (corn; [14]): 2
- Corn plant response rating (corn; [15]): 3
- Plant response rating (0 to 10; 0 is no effect, 10 is complete control), Corn (corn; Rate 250 g/ha, Postemergence): 2
- Corn plant response rating (corn; [23]): 6
- Plant response rating, Blackgrass (blackgrass; [17]): 30
- Plant response rating, Blackgrass (blackgrass; [18]): 50
- Plant response rating, Blackgrass (blackgrass; [19]): 60
- Blackgrass plant response rating (0 to 100 scale) (blackgrass): 80
- Plant response rating, I. Ryegrass (Italian ryegrass; [17]): 20
- Plant response rating, I. Ryegrass (Italian ryegrass; [18]): 30
- Plant response rating, I. Ryegrass (Italian ryegrass; [19]): 50
- I. Ryegrass plant response rating (0 to 100 scale) (Italian ryegrass): 90
- Plant response rating, Wild oat (wild oat; [17]): 30
- Plant response rating, Wild oat (wild oat; [18]): 40
- Plant response rating, Wild oat (wild oat; [19]): 50
- Wild oat plant response rating (0 to 100 scale) (wild oat): 60
- Crabgrass plant response rating (crabgrass; [21]): 2
- Crabgrass plant response rating (crabgrass; [10]): 9
- Crabgrass plant response rating (crabgrass; [11]): 10
- Plant response rating, Crabgrass (crabgrass; [12]): 10
- Crabgrass plant response rating (crabgrass; [22]): 0
- Crabgrass plant response rating (crabgrass; [13]): 5
- Crabgrass plant response rating (crabgrass; [14]): 8
- Crabgrass plant response rating (crabgrass; [15]): 10
- Crabgrass plant response rating (crabgrass; [23]): 8
- Velvetleaf plant response rating (velvetleaf; [21]): 0
- Velvetleaf plant response rating (velvetleaf; [10]): 4
- Velvetleaf plant response rating (velvetleaf; [11]): 6
- Plant response rating, Velvetleaf (velvetleaf; [12]): 7
- Velvetleaf plant response rating (velvetleaf; [13]): 0
- Velvetleaf plant response rating (velvetleaf; [14]): 0
- Velvetleaf plant response rating (velvetleaf; [15]): 5
- Plant response rating (0 to 10; 0 is no effect, 10 is complete control), Velvetleaf (velvetleaf; Rate 250 g/ha, Postemergence): 0
- Velvetleaf plant response rating (velvetleaf; [23]): 3
- Plant response rating, Green foxtail (green foxtail; [17]): 30
- Plant response rating, Green foxtail (green foxtail; [18]): 60
- Plant response rating, Green foxtail (green foxtail; [19]): 50
- Green foxtail plant response rating (0 to 100 scale) (green foxtail): 60
- Plant response rating, Barley (winter) (winter barley; [17]): 0
- Plant response rating, Barley (winter) (winter barley; [18]): 50
- Plant response rating, Barley (winter) (winter barley; [19]): 50
- Barley (winter) plant response rating (0 to 100 scale) (winter barley): 60

SMILES: Cc1nc(C)c(Cn2c(=O)on(C(=O)N(c3ccc(F)cc3)C(C)C)c2=O)s1 [Compound 232]
- Rice plant response rating (rice; [3]): 0
- Rice plant response rating (rice; [4]): 0
- Rice plant response rating (rice; [5]): 0
- Rice plant response rating (rice; [6]): 0
- Wheat (winter) plant response rating (0 to 100 scale) (winter wheat [1]): 30
- Plant response rating, Wheat (winter) (winter wheat [1]; [7]): 30
- Plant response rating, Wheat (winter) (winter wheat [1]; [8]): 50
- Plant response rating, Wheat (winter) (winter wheat [2]; Rate 1000 g/ha, 0 to 100 scale where 0 is no effect and 100 is complete control): 60
- Wheat (winter) plant response rating (winter wheat [2]; [20]): 40
- Plant response rating, Wheat (winter) (winter wheat [2]; [9]): 50
- Corn plant response rating (corn; [10]): 0
- Corn plant response rating (corn; [11]): 0
- Plant response rating, Corn (corn; [12]): 0
- Corn plant response rating (corn; [13]): 0
- Corn plant response rating (corn; [14]): 0
- Corn plant response rating (corn; [15]): 0
- Plant response rating (0 to 10; 0 is no effect, 10 is complete control), Corn (corn; Rate 250 g/ha, Postemergence): 0
- Corn plant response rating (corn; [23]): 0
- Blackgrass plant response rating (0 to 100 scale) (blackgrass): 30
- Plant response rating, Blackgrass (blackgrass; [7]): 50
- Plant response rating, Blackgrass (blackgrass; [8]): 50
- I. Ryegrass plant response rating (0 to 100 scale) (Italian ryegrass): 40
- Plant response rating, I. Ryegrass (Italian ryegrass; [7]): 50
- Plant response rating, I. Ryegrass (Italian ryegrass; [8]): 55
- Wild oat plant response rating (0 to 100 scale) (wild oat): 55
- Plant response rating, Wild oat (wild oat; [7]): 50
- Plant response rating, Wild oat (wild oat; [8]): 60
- Crabgrass plant response rating (crabgrass; [10]): 5
- Crabgrass plant response rating (crabgrass; [11]): 9
- Plant response rating, Crabgrass (crabgrass; [12]): 10
- Crabgrass plant response rating (crabgrass; [13]): 0
- Crabgrass plant response rating (crabgrass; [14]): 1
- Crabgrass plant response rating (crabgrass; [15]): 7
- Plant response rating (0 to 10; 0 is no effect, 10 is complete control), Crabgrass (crabgrass; Rate 250 g/ha, Postemergence): 1
- Crabgrass plant response rating (crabgrass; [23]): 2
- Velvetleaf plant response rating (velvetleaf; [10]): 0
- Velvetleaf plant response rating (velvetleaf; [11]): 0
- Plant response rating, Velvetleaf (velvetleaf; [12]): 0
- Velvetleaf plant response rating (velvetleaf; [13]): 2
- Velvetleaf plant response rating (velvetleaf; [14]): 2
- Velvetleaf plant response rating (velvetleaf; [15]): 0
- Plant response rating (0 to 10; 0 is no effect, 10 is complete control), Velvetleaf (velvetleaf; Rate 250 g/ha, Postemergence): 2
- Velvetleaf plant response rating (velvetleaf; [23]): 3
- Green foxtail plant response rating (0 to 100 scale) (green foxtail): 95
- Plant response rating, Green foxtail (green foxtail; [7]): 90
- Plant response rating, Green foxtail (green foxtail; [8]): 100
- Barley (winter) plant response rating (0 to 100 scale) (winter barley): 20
- Plant response rating, Barley (winter) (winter barley; [7]): 20
- Plant response rating, Barley (winter) (winter barley; [8]): 55
